From ChEMBL document CHEMBL5653615 (J Biol Chem, 2013)

Experiments:
[1] = target: T1, Serine/threonine-protein kinase ULK2 (Homo sapiens) (UniProt Q8IYT8); assay: Inhibition of human ULK2 at 18.6 nM by HotSpot assay relative to control
T1 sequence (whole entry): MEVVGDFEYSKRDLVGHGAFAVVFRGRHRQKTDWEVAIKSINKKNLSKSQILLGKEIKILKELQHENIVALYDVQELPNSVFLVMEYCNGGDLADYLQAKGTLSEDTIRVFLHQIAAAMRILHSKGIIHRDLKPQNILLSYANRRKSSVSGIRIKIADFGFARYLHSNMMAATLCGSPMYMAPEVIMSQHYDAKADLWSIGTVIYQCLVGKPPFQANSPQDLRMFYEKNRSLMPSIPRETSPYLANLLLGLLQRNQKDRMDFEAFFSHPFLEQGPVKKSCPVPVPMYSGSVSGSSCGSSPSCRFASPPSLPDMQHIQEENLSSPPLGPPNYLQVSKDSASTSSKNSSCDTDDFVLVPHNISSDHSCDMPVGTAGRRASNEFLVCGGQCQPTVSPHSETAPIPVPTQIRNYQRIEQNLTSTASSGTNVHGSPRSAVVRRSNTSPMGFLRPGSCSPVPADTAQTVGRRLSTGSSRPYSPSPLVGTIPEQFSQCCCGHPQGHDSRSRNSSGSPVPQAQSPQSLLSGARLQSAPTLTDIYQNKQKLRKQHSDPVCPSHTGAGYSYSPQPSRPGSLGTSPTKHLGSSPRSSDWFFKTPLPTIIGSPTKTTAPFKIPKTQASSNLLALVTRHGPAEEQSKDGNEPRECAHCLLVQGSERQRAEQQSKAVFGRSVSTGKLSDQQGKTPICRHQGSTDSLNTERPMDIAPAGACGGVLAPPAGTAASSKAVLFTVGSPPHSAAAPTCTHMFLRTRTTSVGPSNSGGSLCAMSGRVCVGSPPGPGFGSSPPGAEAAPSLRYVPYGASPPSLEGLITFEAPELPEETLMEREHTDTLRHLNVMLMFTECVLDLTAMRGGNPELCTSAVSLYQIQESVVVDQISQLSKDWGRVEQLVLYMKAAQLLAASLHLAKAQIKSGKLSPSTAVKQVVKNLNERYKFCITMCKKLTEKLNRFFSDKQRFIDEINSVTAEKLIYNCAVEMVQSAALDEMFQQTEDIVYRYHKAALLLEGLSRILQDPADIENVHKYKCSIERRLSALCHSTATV

[2] = target: Casein kinase I isoform gamma-2 (Homo sapiens) (UniProt P78368); assay: Inhibition of human CK1g2 at 1.82 nM by HotSpot assay relative to control
Chain of Casein kinase I isoform gamma-2 (Homo sapiens) (P78368 whole entry, looked up, canonical isoform): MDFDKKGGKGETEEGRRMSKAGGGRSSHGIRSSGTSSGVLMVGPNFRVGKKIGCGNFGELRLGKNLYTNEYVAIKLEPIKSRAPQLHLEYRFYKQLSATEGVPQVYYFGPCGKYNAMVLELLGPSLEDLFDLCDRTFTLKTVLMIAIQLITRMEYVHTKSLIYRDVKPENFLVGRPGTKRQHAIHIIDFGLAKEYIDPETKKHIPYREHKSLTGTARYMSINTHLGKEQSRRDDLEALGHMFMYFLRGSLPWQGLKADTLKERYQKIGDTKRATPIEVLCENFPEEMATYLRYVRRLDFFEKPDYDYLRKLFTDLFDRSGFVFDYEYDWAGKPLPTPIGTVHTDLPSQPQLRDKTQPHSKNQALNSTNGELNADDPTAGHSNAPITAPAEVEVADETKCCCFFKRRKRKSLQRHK

[3] = target: T2, Ephrin type-A receptor 1 (Homo sapiens) (UniProt P21709); assay: Inhibition of human EPHA1 at 1.82 nM by HotSpot assay relative to control
T2 sequence (whole entry): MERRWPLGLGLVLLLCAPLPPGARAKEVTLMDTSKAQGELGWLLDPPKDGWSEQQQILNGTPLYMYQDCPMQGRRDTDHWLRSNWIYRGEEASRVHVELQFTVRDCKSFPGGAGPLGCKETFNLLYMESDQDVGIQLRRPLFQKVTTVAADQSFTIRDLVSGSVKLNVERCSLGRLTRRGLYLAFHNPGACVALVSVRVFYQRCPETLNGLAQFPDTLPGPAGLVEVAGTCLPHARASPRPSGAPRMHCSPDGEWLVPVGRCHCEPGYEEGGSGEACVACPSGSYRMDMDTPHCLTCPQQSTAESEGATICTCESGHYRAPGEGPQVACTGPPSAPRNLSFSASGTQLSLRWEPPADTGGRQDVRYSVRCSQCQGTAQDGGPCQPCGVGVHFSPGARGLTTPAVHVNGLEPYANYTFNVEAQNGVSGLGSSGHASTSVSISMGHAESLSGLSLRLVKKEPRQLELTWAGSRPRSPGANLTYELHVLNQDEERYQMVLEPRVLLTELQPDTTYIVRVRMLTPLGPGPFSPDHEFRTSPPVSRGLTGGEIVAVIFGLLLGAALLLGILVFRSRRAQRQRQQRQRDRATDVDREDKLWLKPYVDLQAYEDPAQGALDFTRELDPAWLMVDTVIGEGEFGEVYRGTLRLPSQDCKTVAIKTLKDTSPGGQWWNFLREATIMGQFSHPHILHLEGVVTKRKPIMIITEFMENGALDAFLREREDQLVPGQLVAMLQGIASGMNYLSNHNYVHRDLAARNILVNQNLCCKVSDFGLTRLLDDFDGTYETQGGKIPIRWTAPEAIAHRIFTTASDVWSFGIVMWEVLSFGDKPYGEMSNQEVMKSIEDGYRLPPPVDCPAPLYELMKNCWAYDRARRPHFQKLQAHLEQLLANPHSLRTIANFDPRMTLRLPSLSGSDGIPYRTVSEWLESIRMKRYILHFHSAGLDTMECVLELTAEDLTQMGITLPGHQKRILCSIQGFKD

[4] = target: Calcium/calmodulin-dependent protein kinase kinase 1 (Homo sapiens) (UniProt Q8N5S9); assay: Inhibition of human CAMKK1 at 1.82 nM by HotSpot assay relative to control
Chain of Calcium/calmodulin-dependent protein kinase kinase 1 (Homo sapiens) (Q8N5S9 whole entry, looked up): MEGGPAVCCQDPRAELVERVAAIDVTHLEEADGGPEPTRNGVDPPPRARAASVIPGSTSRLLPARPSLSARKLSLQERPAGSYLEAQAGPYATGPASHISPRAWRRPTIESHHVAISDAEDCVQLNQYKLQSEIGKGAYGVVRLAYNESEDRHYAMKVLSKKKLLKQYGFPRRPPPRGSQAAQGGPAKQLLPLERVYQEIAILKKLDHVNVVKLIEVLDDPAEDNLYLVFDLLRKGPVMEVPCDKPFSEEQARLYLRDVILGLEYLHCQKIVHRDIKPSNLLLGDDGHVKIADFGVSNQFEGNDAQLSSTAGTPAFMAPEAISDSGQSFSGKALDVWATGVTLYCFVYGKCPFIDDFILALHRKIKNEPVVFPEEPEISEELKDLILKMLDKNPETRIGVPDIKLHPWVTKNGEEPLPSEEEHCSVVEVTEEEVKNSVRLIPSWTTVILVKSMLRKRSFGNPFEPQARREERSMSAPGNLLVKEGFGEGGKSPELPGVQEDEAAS

[5] = target: Serine/threonine-protein kinase 16 (Homo sapiens) (UniProt O75716); assay: Inhibition of human STK16 at 1.82 nM by HotSpot assay relative to control
Chain of Serine/threonine-protein kinase 16 (Homo sapiens) (O75716 whole entry): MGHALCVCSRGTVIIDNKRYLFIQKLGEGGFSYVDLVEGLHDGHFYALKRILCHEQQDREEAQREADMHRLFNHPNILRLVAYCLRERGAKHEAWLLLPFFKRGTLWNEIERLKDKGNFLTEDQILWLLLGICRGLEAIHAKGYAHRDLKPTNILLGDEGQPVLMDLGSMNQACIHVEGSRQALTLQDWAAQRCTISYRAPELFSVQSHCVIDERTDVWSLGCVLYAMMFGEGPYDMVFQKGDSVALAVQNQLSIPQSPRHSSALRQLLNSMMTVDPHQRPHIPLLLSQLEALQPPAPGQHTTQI

[6] = target: STE20-like serine/threonine-protein kinase (Homo sapiens) (UniProt Q9H2G2); assay: Inhibition of human STK2 at 1.82 nM by HotSpot assay relative to control
Chain of STE20-like serine/threonine-protein kinase (Homo sapiens) (Q9H2G2 whole entry, looked up): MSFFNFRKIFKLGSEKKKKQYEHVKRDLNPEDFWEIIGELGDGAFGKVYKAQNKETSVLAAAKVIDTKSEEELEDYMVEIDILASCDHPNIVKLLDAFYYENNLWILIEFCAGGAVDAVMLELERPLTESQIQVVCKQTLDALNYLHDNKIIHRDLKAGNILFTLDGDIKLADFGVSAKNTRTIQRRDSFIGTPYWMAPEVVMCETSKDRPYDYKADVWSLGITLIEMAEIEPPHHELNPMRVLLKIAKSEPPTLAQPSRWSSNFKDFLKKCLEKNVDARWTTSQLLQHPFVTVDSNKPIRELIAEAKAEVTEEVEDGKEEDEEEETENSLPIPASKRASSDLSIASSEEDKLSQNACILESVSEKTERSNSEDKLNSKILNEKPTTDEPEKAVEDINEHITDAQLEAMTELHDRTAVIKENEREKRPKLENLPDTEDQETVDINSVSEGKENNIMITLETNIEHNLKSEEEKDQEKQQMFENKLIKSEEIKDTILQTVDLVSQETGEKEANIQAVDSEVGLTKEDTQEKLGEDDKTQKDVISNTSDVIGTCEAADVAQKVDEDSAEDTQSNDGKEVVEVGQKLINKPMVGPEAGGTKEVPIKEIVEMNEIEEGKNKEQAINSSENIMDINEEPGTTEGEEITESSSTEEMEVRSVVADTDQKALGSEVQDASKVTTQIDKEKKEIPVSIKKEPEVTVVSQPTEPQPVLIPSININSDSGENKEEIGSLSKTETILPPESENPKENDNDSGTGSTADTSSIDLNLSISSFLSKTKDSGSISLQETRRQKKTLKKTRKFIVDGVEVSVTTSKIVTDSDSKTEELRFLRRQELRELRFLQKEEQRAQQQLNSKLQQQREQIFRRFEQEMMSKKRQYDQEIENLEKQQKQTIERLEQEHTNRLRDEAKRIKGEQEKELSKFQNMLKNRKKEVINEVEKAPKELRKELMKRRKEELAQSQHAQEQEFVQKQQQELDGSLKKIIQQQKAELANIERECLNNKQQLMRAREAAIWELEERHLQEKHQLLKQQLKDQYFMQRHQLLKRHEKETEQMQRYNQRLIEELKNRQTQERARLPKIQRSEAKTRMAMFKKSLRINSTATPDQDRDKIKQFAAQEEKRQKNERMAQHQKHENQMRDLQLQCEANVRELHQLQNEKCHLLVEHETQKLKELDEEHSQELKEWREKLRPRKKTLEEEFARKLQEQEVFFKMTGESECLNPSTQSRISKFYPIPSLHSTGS

[7] = target: Death-associated protein kinase 2 (Homo sapiens) (UniProt Q9UIK4); assay: Inhibition of human DAPK2 at 1.82 nM by HotSpot assay relative to control
Chain of Death-associated protein kinase 2 (Homo sapiens) (Q9UIK4 whole entry, looked up): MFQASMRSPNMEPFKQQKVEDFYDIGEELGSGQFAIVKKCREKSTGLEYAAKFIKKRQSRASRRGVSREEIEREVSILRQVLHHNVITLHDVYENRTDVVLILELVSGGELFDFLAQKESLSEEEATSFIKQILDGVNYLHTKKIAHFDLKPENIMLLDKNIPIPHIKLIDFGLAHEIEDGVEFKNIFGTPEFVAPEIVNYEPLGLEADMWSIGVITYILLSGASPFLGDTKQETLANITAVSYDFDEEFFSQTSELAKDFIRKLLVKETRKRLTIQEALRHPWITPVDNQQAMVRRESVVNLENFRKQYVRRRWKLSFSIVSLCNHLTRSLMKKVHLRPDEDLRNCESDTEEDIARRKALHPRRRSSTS

[8] = target: Calcium/calmodulin-dependent protein kinase type II subunit alpha (Homo sapiens) (UniProt Q9UQM7); assay: Inhibition of human CAMK2a at 1.82 nM by HotSpot assay relative to control
Chain of Calcium/calmodulin-dependent protein kinase type II subunit alpha (Homo sapiens) (Q9UQM7 whole entry): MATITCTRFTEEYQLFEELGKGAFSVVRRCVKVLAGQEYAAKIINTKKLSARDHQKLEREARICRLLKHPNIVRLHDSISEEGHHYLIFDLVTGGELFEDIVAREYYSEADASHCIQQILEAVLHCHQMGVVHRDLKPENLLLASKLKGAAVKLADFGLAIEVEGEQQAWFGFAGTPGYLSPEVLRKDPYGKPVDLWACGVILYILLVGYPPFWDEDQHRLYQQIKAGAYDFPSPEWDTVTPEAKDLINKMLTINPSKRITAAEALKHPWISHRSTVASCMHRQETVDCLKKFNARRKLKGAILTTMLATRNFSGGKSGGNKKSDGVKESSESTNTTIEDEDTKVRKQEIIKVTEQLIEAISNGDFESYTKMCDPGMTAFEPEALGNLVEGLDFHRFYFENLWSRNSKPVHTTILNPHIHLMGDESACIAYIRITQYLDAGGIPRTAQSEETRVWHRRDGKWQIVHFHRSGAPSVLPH

inhibition [1]	inhibition [2]	inhibition [3]	inhibition [4]	inhibition [5]	inhibition [6]	inhibition [8]	Structure (SMILES)	inhibition [7]
2.12%	–	–	–	–	–	–	C[C@]1(O)C[C@@H](c2nc(-c3ccc4ccc(-c5ccccc5)nc4c3)c3c(N)nccn32)C1	–
–	-3.24%	-4.67%	-5.91%	-1.36%	15.4%	-2.76%	C[C@@]1(C(=O)Nc2ccc(F)nc2)CCCN1c1nc(Nc2cc(C3CC3)n[nH]2)c2cccn2n1	-1.36%
